Laboratory results reported in patent publication US8952024B2, “Herbicidal pyrimidone derivatives” (E I du Pont de Nemours and Company, priority 2009, dated 2015).

Experiments:
Experiment in all cases: Test B pre-/postemergence plant response
Assay type in all cases: in vivo
corn (Zea mays) = conditions: for Corn plant response rating (0 to 100 scale): 62 g ai/ha, postemergence, 0 is no effect, 100 is complete control; for Plant response rating, Corn: Postemergence
In short: (§1)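 Test compounds, formulated in a non-phytotoxic solvent mixture with surfactant, are applied to the soil surface (loam and sand blend) right after seeding, or sprayed over plants at the 1- to 4-leaf stage grown in peat moss/vermiculite medium. After 13 to 15 days under glasshouse conditions, each species is scored visually from 0 (no effect) to 100 (complete control) against controls.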

[1] = test system: blackgrass (Alopecurus myosuroides); conditions: for Blackgrass plant response rating (0 to 100 scale): 62 g ai/ha, postemergence, 0 is no effect, 100 is complete control; for Plant response rating, Blackgrass: Postemergence
In short: as §1

[2] = test system: giant foxtail (Setaria faberii); conditions: for Foxtail, Giant plant response rating (0 to 100 scale): 62 g ai/ha, postemergence, 0 is no effect, 100 is complete control; for Plant response rating, Foxtail, Giant: Postemergence
In short: as §1

[3] = test system: Surinam grass (Brachiaria decumbens); conditions: for Surinam Grass plant response rating (0 to 100 scale): 62 g ai/ha, postemergence, 0 is no effect, 100 is complete control; for Plant response rating, Surinam Grass: Postemergence
In short: as §1

[4] = test system: ragweed (common ragweed, Ambrosia elatior); conditions: for Ragweed plant response rating (0 to 100 scale): 62 g ai/ha, postemergence, 0 is no effect, 100 is complete control; for Plant response rating, Ragweed: Postemergence
In short: as §1

[5] = test system: goosegrass (Eleusine indica); conditions: for Goosegrass plant response rating (0 to 100 scale): 62 g ai/ha, postemergence, 0 is no effect, 100 is complete control; for Plant response rating, Goosegrass: Postemergence
In short: as §1

[6] = test system: lambsquarters (Chenopodium album); conditions: for Lambsquarters plant response rating (0 to 100 scale): 62 g ai/ha, postemergence, 0 is no effect, 100 is complete control; for Plant response rating, Lambsquarters: Postemergence
In short: as §1

[7] = test system: velvetleaf (Abutilon theophrasti); conditions: for Velvetleaf plant response rating (0 to 100 scale): 62 g ai/ha, postemergence, 0 is no effect, 100 is complete control; for Plant response rating, Velvetleaf: Postemergence
In short: as §1

[8] = test system: bermudagrass (Cynodon dactylon); conditions: for Bermudagrass plant response rating (0 to 100 scale): 62 g ai/ha, postemergence, 0 is no effect, 100 is complete control; for Plant response rating, Bermudagrass: Postemergence
In short: as §1

[9] = test system: downy bromegrass (Bromus tectorum); conditions: for Bromegrass, Downy plant response rating (0 to 100 scale): 62 g ai/ha, postemergence, 0 is no effect, 100 is complete control; for Plant response rating, Bromegrass, Downy: Postemergence
In short: as §1

[10] = test system: woolly cupgrass (Eriochloa villosa); conditions: for Cupgrass, Woolly plant response rating (0 to 100 scale): 62 g ai/ha, postemergence, 0 is no effect, 100 is complete control; for Plant response rating, Cupgrass, Woolly: Postemergence
In short: as §1

kochia (Kochia scoparia) = conditions: for Kochia plant response rating (0 to 100 scale): 62 g ai/ha, postemergence, 0 is no effect, 100 is complete control; for Plant response rating, Kochia: Postemergence
In short: as §1

[11] = test system: large crabgrass (Digitaria sanguinalis); conditions: for Crabgrass, Large plant response rating (0 to 100 scale): 62 g ai/ha, postemergence, 0 is no effect, 100 is complete control; for Plant response rating, Crabgrass, Large: Postemergence
In short: as §1

[12] = test system: green foxtail (Setaria viridis); conditions: for Foxtail, Green plant response rating (0 to 100 scale): 62 g ai/ha, postemergence, 0 is no effect, 100 is complete control; for Plant response rating, Foxtail, Green: Postemergence
In short: as §1

[13] = test system: yellow nutsedge (Cyperus esculentus); conditions: for Nutsedge, Yellow plant response rating (0 to 100 scale): 62 g ai/ha, postemergence, 0 is no effect, 100 is complete control; for Plant response rating, Nutsedge, Yellow: Postemergence
In short: as §1

[14] = test system: johnsongrass (Sorghum halepense); conditions: for Johnsongrass plant response rating (0 to 100 scale): 62 g ai/ha, postemergence, 0 is no effect, 100 is complete control; for Plant response rating, Johnsongrass: Postemergence
In short: as §1

[15] = test system: Italian ryegrass (Lolium multiflorum); conditions: for Ryegrass, Italian plant response rating (0 to 100 scale): 62 g ai/ha, postemergence, 0 is no effect, 100 is complete control; for Plant response rating, Ryegrass, Italian: Postemergence
In short: as §1

[16] = 31 g ai/ha, 0 to 100 scale (0 no effect, 100 complete control)
[17] = 125 g ai/ha, scale 0 to 100 (0 no effect, 100 complete control)
[18] = 250 g ai/ha, scale 0 to 100 (0 no effect, 100 complete control), 13 to 15 days

O=C1CCCC(O)=C1C(=O)c1cnc(-c2ccccc2)n(C2CCOCC2)c1=O [Compound 129]
95: Ragweed plant response rating (0 to 100 scale) ([4]; 13 to 15 days) | Plant response rating, Ragweed [4, 17] | Plant response rating, Ragweed [4, 18] | Plant response rating, Goosegrass [5, 18] | Lambsquarters plant response rating (0 to 100 scale) ([6]; 13 to 15 days) | Plant response rating, Lambsquarters [6, 17] | Velvetleaf plant response rating (0 to 100 scale) ([7]; 13 to 15 days) | Plant response rating, Velvetleaf [7, 16] | Plant response rating, Velvetleaf [7, 17] | Plant response rating, Bermudagrass [8, 17] | Kochia plant response rating (0 to 100 scale) (kochia (Kochia scoparia); 13 to 15 days) | Plant response rating, Kochia (kochia (Kochia scoparia); [17]) | Plant response rating, Foxtail, Green [12, 18]
5: Blackgrass plant response rating (0 to 100 scale) ([1]; 13 to 15 days) | Plant response rating, Blackgrass [1, 17] | Plant response rating, Blackgrass [1, 18] | Plant response rating, Bromegrass, Downy [9, 16]
60: Plant response rating, Corn (corn (Zea mays); [17]) | Plant response rating, Corn (corn (Zea mays); [18]) | Plant response rating, Nutsedge, Yellow [13, 17]
10: Bromegrass, Downy plant response rating (0 to 100 scale) ([9]; 13 to 15 days)
0: Plant response rating, Blackgrass [1, 16] | Ryegrass, Italian plant response rating (0 to 100 scale) ([15]; 13 to 15 days) | Plant response rating, Ryegrass, Italian [15, 16] | Plant response rating, Ryegrass, Italian [15, 17] | Plant response rating, Ryegrass, Italian [15, 18]
35: Corn plant response rating (0 to 100 scale) (corn (Zea mays); 13 to 15 days) | Plant response rating, Bromegrass, Downy [9, 18] | Nutsedge, Yellow plant response rating (0 to 100 scale) ([13]; 13 to 15 days) | Plant response rating, Nutsedge, Yellow [13, 16]
98: Plant response rating, Foxtail, Giant [2, 18] | Plant response rating, Lambsquarters [6, 18] | Plant response rating, Bermudagrass [8, 18] | Plant response rating, Kochia (kochia (Kochia scoparia); [18])
20: Plant response rating, Corn (corn (Zea mays); [16])
15: Plant response rating, Bromegrass, Downy [9, 17]
40: Plant response rating, Johnsongrass [14, 16]
70: Plant response rating, Foxtail, Giant [2, 16] | Plant response rating, Johnsongrass [14, 17]
90: Plant response rating, Foxtail, Giant [2, 17] | Plant response rating, Ragweed [4, 16] | Plant response rating, Goosegrass [5, 17] | Plant response rating, Lambsquarters [6, 16] | Foxtail, Green plant response rating (0 to 100 scale) ([12]; 13 to 15 days) | Plant response rating, Foxtail, Green [12, 17]
100: Plant response rating, Velvetleaf [7, 18]
45: Johnsongrass plant response rating (0 to 100 scale) ([14]; 13 to 15 days)
85: Foxtail, Giant plant response rating (0 to 100 scale) ([2]; 13 to 15 days) | Surinam Grass plant response rating (0 to 100 scale) ([3]; 13 to 15 days) | Plant response rating, Surinam Grass [3, 17] | Plant response rating, Surinam Grass [3, 18] | Goosegrass plant response rating (0 to 100 scale) ([5]; 13 to 15 days) | Plant response rating, Goosegrass [5, 16] | Cupgrass, Woolly plant response rating (0 to 100 scale) ([10]; 13 to 15 days) | Plant response rating, Cupgrass, Woolly [10, 17] | Plant response rating, Cupgrass, Woolly [10, 18] | Plant response rating, Crabgrass, Large [11, 17] | Plant response rating, Crabgrass, Large [11, 18] | Plant response rating, Nutsedge, Yellow [13, 18] | Plant response rating, Johnsongrass [14, 18]
80: Plant response rating, Surinam Grass [3, 16] | Bermudagrass plant response rating (0 to 100 scale) ([8]; 13 to 15 days) | Plant response rating, Bermudagrass [8, 16] | Plant response rating, Cupgrass, Woolly [10, 16] | Plant response rating, Kochia (kochia (Kochia scoparia); [16]) | Crabgrass, Large plant response rating (0 to 100 scale) ([11]; 13 to 15 days) | Plant response rating, Crabgrass, Large [11, 16] | Plant response rating, Foxtail, Green [12, 16]

O=C1CCCC(O)=C1C(=O)c1cnc(-c2ccccc2)n(C2CCCCCC2)c1=O [Compound 130]
98: Plant response rating, Foxtail, Giant [2, 17] | Plant response rating, Foxtail, Giant [2, 18] | Plant response rating, Ragweed [4, 17] | Plant response rating, Ragweed [4, 18] | Plant response rating, Lambsquarters [6, 16] | Plant response rating, Velvetleaf [7, 17] | Plant response rating, Foxtail, Green [12, 18]
40: Plant response rating, Bromegrass, Downy [9, 18] | Plant response rating, Nutsedge, Yellow [13, 18]
55: Plant response rating, Corn (corn (Zea mays); [16])
95: Plant response rating, Goosegrass [5, 17] | Plant response rating, Goosegrass [5, 18] | Velvetleaf plant response rating (0 to 100 scale) ([7]; 13 to 15 days) | Plant response rating, Velvetleaf [7, 16] | Plant response rating, Bermudagrass [8, 18] | Plant response rating, Crabgrass, Large [11, 17] | Plant response rating, Foxtail, Green [12, 17]
60: Corn plant response rating (0 to 100 scale) (corn (Zea mays); 13 to 15 days) | Johnsongrass plant response rating (0 to 100 scale) ([14]; 13 to 15 days) | Plant response rating, Johnsongrass [14, 16]
5: Blackgrass plant response rating (0 to 100 scale) ([1]; 13 to 15 days) | Plant response rating, Blackgrass [1, 17] | Plant response rating, Blackgrass [1, 18] | Plant response rating, Ryegrass, Italian [15, 18]
20: Nutsedge, Yellow plant response rating (0 to 100 scale) ([13]; 13 to 15 days)
0: Plant response rating, Blackgrass [1, 16] | Ryegrass, Italian plant response rating (0 to 100 scale) ([15]; 13 to 15 days) | Plant response rating, Ryegrass, Italian [15, 16] | Plant response rating, Ryegrass, Italian [15, 17]
80: Plant response rating, Corn (corn (Zea mays); [17]) | Plant response rating, Corn (corn (Zea mays); [18]) | Surinam Grass plant response rating (0 to 100 scale) ([3]; 13 to 15 days) | Plant response rating, Surinam Grass [3, 16] | Plant response rating, Surinam Grass [3, 17] | Plant response rating, Cupgrass, Woolly [10, 16] | Plant response rating, Johnsongrass [14, 17] | Plant response rating, Johnsongrass [14, 18]
100: Lambsquarters plant response rating (0 to 100 scale) ([6]; 13 to 15 days) | Plant response rating, Lambsquarters [6, 17] | Plant response rating, Lambsquarters [6, 18] | Plant response rating, Velvetleaf [7, 18] | Plant response rating, Kochia (kochia (Kochia scoparia); [17]) | Plant response rating, Kochia (kochia (Kochia scoparia); [18]) | Plant response rating, Crabgrass, Large [11, 18]
85: Plant response rating, Ragweed [4, 16] | Goosegrass plant response rating (0 to 100 scale) ([5]; 13 to 15 days) | Plant response rating, Goosegrass [5, 16] | Cupgrass, Woolly plant response rating (0 to 100 scale) ([10]; 13 to 15 days) | Plant response rating, Cupgrass, Woolly [10, 17] | Kochia plant response rating (0 to 100 scale) (kochia (Kochia scoparia); 13 to 15 days) | Plant response rating, Kochia (kochia (Kochia scoparia); [16]) | Crabgrass, Large plant response rating (0 to 100 scale) ([11]; 13 to 15 days) | Plant response rating, Crabgrass, Large [11, 16]
15: Bromegrass, Downy plant response rating (0 to 100 scale) ([9]; 13 to 15 days)
90: Foxtail, Giant plant response rating (0 to 100 scale) ([2]; 13 to 15 days) | Plant response rating, Foxtail, Giant [2, 16] | Plant response rating, Surinam Grass [3, 18] | Ragweed plant response rating (0 to 100 scale) ([4]; 13 to 15 days) | Bermudagrass plant response rating (0 to 100 scale) ([8]; 13 to 15 days) | Plant response rating, Bermudagrass [8, 17] | Plant response rating, Cupgrass, Woolly [10, 18] | Foxtail, Green plant response rating (0 to 100 scale) ([12]; 13 to 15 days) | Plant response rating, Foxtail, Green [12, 16]
35: Plant response rating, Bromegrass, Downy [9, 17] | Plant response rating, Nutsedge, Yellow [13, 17]
75: Plant response rating, Bermudagrass [8, 16]
10: Plant response rating, Bromegrass, Downy [9, 16] | Plant response rating, Nutsedge, Yellow [13, 16]
